From ChEMBL document CHEMBL1201862, “PubChem BioAssay data set” (2004)
Active and inactive are the calls of the source.

How the values were obtained:
[1] = antiviral protection against BTV-induced cell death – arbovirus, BSR cells, confirmation (AID 1250); type: functional;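 further: protection from viral cytopathic effect measured as cell viability by ATP luminescence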
[2] = M. tuberculosis growth inhibition, HTS (AID 449762); type: functional
[3] = microbe, parasite or virus in culture; type: functional; conditions: Mycobacterium tuberculosis
[4] = target: Mu-type opioid receptor (Homo sapiens, UniProt P35372); type: functional, cell-based;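 further: U2OS cells with beta-arrestin recruitment to OPRM1 by beta-gal complementation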
[5] = target: 5-hydroxytryptamine receptor 2A (Mus musculus, UniProt P35363); type: functional, cell-based;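 further: CHO-K1 cells with tagged receptor and beta-arrestin; agonist potency measured as compound-induced activation of the receptor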
[6] = target: Ephrin type-A receptor 4 (Mus musculus, UniProt Q03137); assay: EphA4 ligand-binding antagonists – biochemical, colorimetric, mouse EphA4, primary screen (AID 689); type: functional
[7] = luciferase reporter signal suppression in cells – H4 neuroglioma cells, luminescence, dose response (AID 1990); type: functional, cell-based
[8] = luciferase reporter signal reduction – luminescence, H4-C neuroglioblastoma cells, dose response (AID 2458); type: functional, cell-based;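 further: H4 neuroglioblastoma cells stably carrying a luciferase reporter gene fusion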
[9] = cells; type: functional, cell-based
[10] = alpha-synuclein stem-loop luciferase translation blockers – H4 neuroglioma cells, luminescence, confirmation (AID 1988); type: functional, cell-based
[11] = Luminescence-based dose response cell-based high throughput screening assay for cytotoxic compounds using the IEC-6 intestinal epithelial cell line. [Related pubchem assays: 1858 (Summary AID.), 1825 (Counterscreen.), 1907 (Confirmation screen.)]; type: functional
[12] = alpha-synuclein stem-loop translation blockers – luminescence, H4 neuroglioblastoma cells, dose confirmation, confirmation (AID 2454); type: functional, cell-based;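 further: H4 neuroglioblastoma cells carrying an alpha-synuclein 5'UTR luciferase reporter; potency for inhibition of the luciferase signal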
[13] = HEK-293T viability loss after treatment – luminescence, T-cell screen hits, cytotoxicity control for TCR NF-kB inhibitor project, dose response (AID 489026); type: functional, cell-based;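 further: cells exposed to compound about 14 hours before the viability readout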
[14] = Trypanosoma cruzi growth suppression in host cells – NIH3T3 host cells, beta-gal luminescence, confirmation (AID 2044); type: functional, cell-based;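 further: intracellular parasites grown in NIH/3T3 mouse fibroblasts as host cells; luminescent beta-galactosidase reporter signal from transgenic T. cruzi replicating inside host cells; inhibitors lower the luminescence signal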
[15] = NIH3T3 cell viability loss – ATP luminescence, mouse fibroblasts, counter-screen, dose response (AID 2010); type: functional, cell-based;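 further: cells exposed to compound for about 90 hours before reading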
[16] = cells
[17] = viability of uninfected HEp-2 cells – cell-based, HTS, cytotoxicity control for RSV inhibitor project, dose response (AID 2410); type: functional; conditions: human respiratory syncytial virus
[18] = test system: H9c2; assay: cells; type: functional, cell-based; conditions: Rattus norvegicus, H9c2, Myocardium;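 further: confirmatory concentration-response retest of ultra-high-throughput screening hits for modulation of myocardial damage; cell death induced by hydrogen peroxide oxidative stress; compound pretreatment for 60 min then peroxide exposure for 2 h; potency is for protecting the cells against peroxide damage rather than for killing them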
[19] = cells; remark: listed apart in the source
[20] = test system: Vero; assay: mammalian cell viability reduction – secondary assay, cytotoxicity control for West Nile virus antiviral project, dose response (AID 1650); type: functional; conditions: Chlorocebus sabaeus
[21] = target: Cytochrome P450 2C19 (Homo sapiens, UniProt P33261); assay: Cytochrome panel assay with activity outcomes. Panel member name: p450-cyp2c19 Compounds with AC50 equal or less than 10 uM are considered active; type: functional; conditions: read-out: AC50
[22] = target: Cytochrome P450 3A4 (Homo sapiens, UniProt P08684);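 further: CYP3A4 tested as one member of a cytochrome P450 panel screen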
[23] = Luminescence Cell-Based Dose Response HTS to Identify Inhibitors of 5'UTR Stem-Loop Driven Prion Protein mRNA Translation in H4 Neuroglioblastoma Cells. [Related pubchem assays: 1827 (Project Summary), 1813 (Primary HTS)]; type: functional
[24] = HEK-293T cell viability reduction – luminescence, B-cell screen hits, cytotoxicity control for BCR NF-kB inhibitor project, dose response (AID 489021); type: functional, cell-based;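 further: HEK-293T cells carrying an NF-kB luciferase reporter; cells exposed to compound for about 14 hours before viability readout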
[25] = target: Genome polyprotein (Hepatitis C virus, UniProt Q2Q167); assay: disruption of hepatitis C core self-association – biochemical, TR-FRET, dose response (AID 2159); design: species or system Hepacivirus hominis;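 further: blocks dimerization of HCV core protein measured by TR-FRET between tagged core106 pairs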
[26] = target: Induced myeloid leukemia cell differentiation protein Mcl-1 (Homo sapiens, UniProt Q07820); type: functional
[27] = target: T1, Carboxy-terminal domain RNA polymerase II polypeptide A small phosphatase 1 (Homo sapiens, UniProt Q9GZU7); assay: CTDSP1 inhibitors, concentration-response, biochemical, absorbance readout, ultra-high-throughput screen actives (AID 540297); type: functional
T1 sequence (Q9GZU7 whole entry): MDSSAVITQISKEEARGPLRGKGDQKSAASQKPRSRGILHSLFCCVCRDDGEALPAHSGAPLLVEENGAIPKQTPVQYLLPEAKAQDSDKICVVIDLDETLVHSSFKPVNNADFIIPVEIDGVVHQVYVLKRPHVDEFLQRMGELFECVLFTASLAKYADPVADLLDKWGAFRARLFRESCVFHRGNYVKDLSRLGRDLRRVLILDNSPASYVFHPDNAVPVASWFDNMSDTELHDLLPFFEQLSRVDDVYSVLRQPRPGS

[28] = cells; type: functional, cell-based; remark: listed apart in the source
[29] = target: T2, Mannose-6-phosphate isomerase (Homo sapiens, UniProt P34949); assay: MPI enzyme activity inhibition – biochemical, fluorescence intensity, coupled assay, primary screen (AID 1209)
T2 sequence (P34949 whole entry): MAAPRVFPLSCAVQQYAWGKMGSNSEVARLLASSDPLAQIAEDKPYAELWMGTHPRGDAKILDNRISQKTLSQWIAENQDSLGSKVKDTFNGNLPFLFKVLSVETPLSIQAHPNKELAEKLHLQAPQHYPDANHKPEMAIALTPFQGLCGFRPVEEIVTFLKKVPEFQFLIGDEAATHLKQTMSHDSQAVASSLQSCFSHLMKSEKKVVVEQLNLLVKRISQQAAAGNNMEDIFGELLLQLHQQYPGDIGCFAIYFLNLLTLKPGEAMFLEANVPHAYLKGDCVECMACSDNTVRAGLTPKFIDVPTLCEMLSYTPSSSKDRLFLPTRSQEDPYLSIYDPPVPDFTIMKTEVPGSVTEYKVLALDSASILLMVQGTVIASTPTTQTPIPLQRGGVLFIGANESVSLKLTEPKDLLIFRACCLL

[30] = cells; type: functional, cell-based; remark: listed apart in the source
[31] = target: T2, Mannose-6-phosphate isomerase; assay: MPI inhibition at elevated mannose 6-phosphate – biochemical, fluorescence intensity, high mannose 6-phosphate, primary screen (AID 1220)
[32] = target: Intestinal-type alkaline phosphatase (Mus musculus, UniProt P24822); assay: PubChem AID 488874; type: functional
[33] = target: T3, Intestinal-type alkaline phosphatase (Homo sapiens, UniProt P09923); assay: human intestinal alkaline phosphatase activators, dose response, biochemical, luminescence, uHTS hits (AID 463120); type: functional
[34] = target: FAD-linked sulfhydryl oxidase ALR (Homo sapiens, UniProt P55789); assay: ALR-catalysed DTT oxidation blockers – biochemical, H2O2 detection, luminescence, cherry-pick, dose response (AID 493248)
[35] = target: T3, Intestinal-type alkaline phosphatase; assay: activation of human intestinal alkaline phosphatase – biochemical, luminescent, uHTS hits, set 2, dose response (AID 488817); type: functional;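 further: potency of activators that raise enzyme activity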
[36] = target: T4, Alkaline phosphatase, tissue-nonspecific isozyme (Homo sapiens, UniProt P05186); assay: activation of tissue-nonspecific alkaline phosphatase – biochemical, TNAP isozyme, human IAP uHTS hits, selectivity assay for human IAP activator project, dose response (AID 488886); type: functional;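 further: potency of compounds raising TNAP activity as a selectivity check on IAP activators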
T4 sequence (P05186 whole entry): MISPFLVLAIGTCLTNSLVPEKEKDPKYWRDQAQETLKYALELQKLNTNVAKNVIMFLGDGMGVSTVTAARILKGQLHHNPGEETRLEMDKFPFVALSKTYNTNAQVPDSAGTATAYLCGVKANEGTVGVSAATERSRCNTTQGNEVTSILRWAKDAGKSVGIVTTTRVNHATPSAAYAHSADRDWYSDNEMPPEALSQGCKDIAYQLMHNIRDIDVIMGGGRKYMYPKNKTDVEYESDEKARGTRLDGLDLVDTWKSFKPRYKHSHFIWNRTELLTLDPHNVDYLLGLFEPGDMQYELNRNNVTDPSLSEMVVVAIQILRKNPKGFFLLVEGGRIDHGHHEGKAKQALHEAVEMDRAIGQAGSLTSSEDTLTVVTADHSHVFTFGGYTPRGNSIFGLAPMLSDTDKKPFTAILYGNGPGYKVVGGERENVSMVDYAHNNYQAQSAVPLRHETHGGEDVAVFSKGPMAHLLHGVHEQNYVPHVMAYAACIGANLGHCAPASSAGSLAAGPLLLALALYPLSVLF

[37] = test system: INS1; assay: INS-1E survival protection against cytokine death – cell-based, luminescence, retest, dose response (AID 449756); type: functional; conditions: Rattus norvegicus;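 further: cell death triggered by IL-1 beta plus TNF-alpha plus IFN-gamma mixture; protective hits raise ATP signal compared with cytokine alone wells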
[38] = target: T5, Rac GTPase-activating protein 1 (Homo sapiens, UniProt Q9H0H5); assay: blockers of MgcRacGAP-driven Rac1 GTP hydrolysis – biochemical, ADP Hunter fluorescence, primary and confirmatory, confirmation (AID 624330); type: functional
T5 sequence (Q9H0H5 whole entry): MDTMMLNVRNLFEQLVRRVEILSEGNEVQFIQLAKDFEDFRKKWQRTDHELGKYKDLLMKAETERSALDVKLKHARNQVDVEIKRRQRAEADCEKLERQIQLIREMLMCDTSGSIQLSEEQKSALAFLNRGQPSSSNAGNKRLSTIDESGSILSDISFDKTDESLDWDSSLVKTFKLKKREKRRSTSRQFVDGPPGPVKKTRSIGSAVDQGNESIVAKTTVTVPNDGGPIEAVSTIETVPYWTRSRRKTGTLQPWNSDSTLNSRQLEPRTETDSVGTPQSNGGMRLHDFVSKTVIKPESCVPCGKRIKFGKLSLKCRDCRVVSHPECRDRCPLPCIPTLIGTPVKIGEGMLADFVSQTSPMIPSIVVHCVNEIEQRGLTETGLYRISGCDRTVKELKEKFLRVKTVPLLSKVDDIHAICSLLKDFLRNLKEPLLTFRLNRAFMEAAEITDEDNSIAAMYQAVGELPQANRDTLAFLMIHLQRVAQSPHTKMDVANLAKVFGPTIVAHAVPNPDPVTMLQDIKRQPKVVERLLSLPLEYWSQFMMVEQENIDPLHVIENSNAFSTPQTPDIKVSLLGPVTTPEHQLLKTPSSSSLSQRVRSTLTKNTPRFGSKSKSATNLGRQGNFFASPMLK

Genome polyprotein, sequence (Q2Q167 whole entry): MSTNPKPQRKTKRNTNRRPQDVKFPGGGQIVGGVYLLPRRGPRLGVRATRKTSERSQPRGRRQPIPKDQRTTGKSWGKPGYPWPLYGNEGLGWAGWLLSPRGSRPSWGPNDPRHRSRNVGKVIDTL
T3 sequence (P09923 whole entry): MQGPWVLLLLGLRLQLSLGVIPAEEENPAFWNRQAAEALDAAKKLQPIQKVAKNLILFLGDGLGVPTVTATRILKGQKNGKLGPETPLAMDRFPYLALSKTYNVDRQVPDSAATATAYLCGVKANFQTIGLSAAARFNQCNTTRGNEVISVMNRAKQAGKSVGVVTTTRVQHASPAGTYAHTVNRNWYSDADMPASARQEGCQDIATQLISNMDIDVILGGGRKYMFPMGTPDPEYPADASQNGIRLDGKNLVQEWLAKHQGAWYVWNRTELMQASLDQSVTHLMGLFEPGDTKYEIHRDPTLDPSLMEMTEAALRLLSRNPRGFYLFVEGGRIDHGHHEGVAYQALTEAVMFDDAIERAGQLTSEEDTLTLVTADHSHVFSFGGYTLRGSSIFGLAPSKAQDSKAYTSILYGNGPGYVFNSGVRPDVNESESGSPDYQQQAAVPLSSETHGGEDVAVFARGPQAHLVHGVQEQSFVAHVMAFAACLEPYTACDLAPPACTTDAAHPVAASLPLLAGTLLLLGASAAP
FAD-linked sulfhydryl oxidase ALR, sequence (P55789 whole entry): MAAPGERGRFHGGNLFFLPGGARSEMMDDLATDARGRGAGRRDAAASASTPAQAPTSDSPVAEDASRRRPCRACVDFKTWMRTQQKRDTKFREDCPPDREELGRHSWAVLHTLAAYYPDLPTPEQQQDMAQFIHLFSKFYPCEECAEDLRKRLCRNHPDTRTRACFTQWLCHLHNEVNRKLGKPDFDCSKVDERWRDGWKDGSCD
Cytochrome P450 2C19, sequence (P33261 whole entry): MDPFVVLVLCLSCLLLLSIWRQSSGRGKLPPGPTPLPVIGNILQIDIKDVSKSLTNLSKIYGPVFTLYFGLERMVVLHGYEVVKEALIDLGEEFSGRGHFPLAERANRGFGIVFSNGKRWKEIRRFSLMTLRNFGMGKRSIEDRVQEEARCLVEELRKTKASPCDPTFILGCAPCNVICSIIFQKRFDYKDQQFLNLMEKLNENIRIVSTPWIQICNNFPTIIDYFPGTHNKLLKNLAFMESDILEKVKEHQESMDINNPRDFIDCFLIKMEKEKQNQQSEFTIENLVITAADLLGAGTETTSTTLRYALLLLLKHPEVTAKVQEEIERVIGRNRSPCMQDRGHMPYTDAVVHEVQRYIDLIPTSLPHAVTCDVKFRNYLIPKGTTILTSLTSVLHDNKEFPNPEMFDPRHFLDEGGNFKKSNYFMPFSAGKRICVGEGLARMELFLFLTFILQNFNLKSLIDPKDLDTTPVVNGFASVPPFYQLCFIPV
Intestinal-type alkaline phosphatase (Mus musculus, UniProt P24822), sequence (P24822 whole entry): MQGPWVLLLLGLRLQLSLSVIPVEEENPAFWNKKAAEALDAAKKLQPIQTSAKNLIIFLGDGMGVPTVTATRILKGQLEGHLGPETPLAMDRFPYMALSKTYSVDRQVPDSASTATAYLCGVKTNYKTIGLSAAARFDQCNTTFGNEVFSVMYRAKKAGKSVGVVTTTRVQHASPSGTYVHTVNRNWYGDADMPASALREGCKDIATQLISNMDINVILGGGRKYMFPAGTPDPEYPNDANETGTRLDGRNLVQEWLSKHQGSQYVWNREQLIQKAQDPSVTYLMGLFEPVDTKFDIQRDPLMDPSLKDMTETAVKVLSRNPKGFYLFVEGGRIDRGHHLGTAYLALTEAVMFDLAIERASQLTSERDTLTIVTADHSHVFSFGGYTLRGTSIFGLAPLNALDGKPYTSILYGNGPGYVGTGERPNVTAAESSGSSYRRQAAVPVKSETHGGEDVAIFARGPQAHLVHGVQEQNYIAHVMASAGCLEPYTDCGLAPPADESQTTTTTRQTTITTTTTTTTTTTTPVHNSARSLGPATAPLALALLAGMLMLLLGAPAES
Ephrin type-A receptor 4, sequence (Q03137 whole entry): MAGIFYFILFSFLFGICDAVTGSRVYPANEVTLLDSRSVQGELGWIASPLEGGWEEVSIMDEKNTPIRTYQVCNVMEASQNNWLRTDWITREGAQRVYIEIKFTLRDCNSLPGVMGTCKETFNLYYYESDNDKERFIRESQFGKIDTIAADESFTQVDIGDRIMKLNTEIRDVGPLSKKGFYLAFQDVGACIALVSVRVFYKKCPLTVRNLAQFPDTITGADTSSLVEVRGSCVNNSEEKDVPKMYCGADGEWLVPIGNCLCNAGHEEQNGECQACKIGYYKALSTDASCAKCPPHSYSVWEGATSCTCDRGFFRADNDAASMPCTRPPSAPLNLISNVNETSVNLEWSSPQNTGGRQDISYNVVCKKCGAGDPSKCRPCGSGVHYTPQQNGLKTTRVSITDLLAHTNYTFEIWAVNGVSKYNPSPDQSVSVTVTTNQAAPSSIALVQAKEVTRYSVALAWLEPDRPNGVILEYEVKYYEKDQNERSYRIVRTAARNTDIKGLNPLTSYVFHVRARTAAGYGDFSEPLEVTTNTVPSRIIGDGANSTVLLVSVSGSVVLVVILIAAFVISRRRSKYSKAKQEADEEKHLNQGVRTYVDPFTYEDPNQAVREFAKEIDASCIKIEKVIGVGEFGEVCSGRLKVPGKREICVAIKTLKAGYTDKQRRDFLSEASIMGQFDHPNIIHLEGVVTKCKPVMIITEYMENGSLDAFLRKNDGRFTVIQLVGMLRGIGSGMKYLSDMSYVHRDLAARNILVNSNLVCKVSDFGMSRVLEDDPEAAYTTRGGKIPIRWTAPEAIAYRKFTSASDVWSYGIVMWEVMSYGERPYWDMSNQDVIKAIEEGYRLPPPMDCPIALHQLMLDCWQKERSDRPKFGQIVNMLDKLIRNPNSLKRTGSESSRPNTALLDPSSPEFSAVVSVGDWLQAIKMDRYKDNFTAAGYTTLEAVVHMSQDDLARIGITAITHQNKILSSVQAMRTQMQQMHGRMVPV
5-hydroxytryptamine receptor 2A, sequence (P35363 whole entry): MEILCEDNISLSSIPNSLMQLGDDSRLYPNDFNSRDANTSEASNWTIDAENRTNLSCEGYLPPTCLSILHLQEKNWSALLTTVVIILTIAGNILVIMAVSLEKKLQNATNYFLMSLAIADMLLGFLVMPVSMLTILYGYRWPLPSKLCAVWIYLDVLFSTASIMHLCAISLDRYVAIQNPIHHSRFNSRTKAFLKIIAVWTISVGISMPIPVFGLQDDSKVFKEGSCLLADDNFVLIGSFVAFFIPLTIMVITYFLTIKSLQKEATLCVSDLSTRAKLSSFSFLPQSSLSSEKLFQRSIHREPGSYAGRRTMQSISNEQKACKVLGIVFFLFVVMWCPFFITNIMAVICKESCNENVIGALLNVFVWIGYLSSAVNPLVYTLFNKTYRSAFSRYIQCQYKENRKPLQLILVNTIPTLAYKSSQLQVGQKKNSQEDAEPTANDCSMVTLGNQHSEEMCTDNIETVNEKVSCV
Induced myeloid leukemia cell differentiation protein Mcl-1, sequence (Q07820 whole entry, the tested form may be a part): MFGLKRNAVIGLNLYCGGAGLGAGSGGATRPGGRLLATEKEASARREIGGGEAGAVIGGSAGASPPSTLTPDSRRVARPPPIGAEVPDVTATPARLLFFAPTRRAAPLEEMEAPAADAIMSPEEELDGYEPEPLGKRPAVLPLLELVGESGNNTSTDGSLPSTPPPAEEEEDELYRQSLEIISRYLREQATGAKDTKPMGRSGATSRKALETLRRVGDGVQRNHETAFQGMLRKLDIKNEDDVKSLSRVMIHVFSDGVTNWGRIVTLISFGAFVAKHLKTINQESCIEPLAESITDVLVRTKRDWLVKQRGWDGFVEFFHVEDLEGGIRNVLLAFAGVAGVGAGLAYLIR
Mu-type opioid receptor, sequence (P35372 whole entry): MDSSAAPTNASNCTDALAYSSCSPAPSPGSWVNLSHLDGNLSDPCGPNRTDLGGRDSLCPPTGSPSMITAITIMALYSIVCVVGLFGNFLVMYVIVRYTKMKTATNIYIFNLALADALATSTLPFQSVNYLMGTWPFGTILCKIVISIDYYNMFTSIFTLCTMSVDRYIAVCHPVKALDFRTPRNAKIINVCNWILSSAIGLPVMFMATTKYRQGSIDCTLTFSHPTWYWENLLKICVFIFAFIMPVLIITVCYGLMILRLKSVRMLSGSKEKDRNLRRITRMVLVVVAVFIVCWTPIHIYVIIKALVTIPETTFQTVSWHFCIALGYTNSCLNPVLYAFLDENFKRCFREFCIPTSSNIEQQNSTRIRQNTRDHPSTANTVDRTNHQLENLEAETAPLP
Cytochrome P450 3A4, sequence (P08684 whole entry): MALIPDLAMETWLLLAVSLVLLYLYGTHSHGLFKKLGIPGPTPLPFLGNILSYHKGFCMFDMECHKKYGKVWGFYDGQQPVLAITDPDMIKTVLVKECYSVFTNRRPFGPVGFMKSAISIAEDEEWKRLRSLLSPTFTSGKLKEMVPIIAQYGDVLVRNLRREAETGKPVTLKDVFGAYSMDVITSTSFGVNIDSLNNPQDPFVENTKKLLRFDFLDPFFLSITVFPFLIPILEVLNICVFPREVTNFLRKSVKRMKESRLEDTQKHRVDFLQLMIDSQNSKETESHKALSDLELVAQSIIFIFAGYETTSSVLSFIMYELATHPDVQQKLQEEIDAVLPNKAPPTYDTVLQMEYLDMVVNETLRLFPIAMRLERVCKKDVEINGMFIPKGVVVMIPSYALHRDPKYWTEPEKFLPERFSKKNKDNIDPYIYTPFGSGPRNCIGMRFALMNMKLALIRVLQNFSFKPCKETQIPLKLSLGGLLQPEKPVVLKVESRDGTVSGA

COCCn1c(-c2ccccc2)cnc1SCC(=O)Nc1cccc2ccccc12
IC50 [1]: 27.4 µM (active)

CC(C)C[C@H]1C(=O)N2CCC[C@H]2[C@]2(O)O[C@](NC(=O)C3C=C4c5cccc6[nH]c(Br)c(c56)C[C@H]4N(C)C3)(C(C)C)C(=O)N12 (stereo not given in full)
IC50 [2]: > 100 µM (active) | CC50 [3]: > 40 µM (active) | EC50 [4]: 92.5 µM (inactive) | EC50 [5]: 0.0038 µM (active)

CCc1cc(C(=O)O)c(NC(=O)c2cc(OC)c(OC)c(OC)c2)s1
IC50 [1]: 29.2 µM (active)

Nc1ccc(Br)c2c1C(=O)c1ccccc1C2=O
IC50 [6]: 13.5 µM (active)

CCCCCC(=O)N[C@@H](c1ccccc1)[C@@H](O)C(=O)O[C@H]1C[C@@]2(O)[C@@H](OC(=O)c3ccccc3)C3[C@](C)(C(=O)[C@H](OC(C)=O)C(=C1C)C2(C)C)[C@@H](O)C[C@H]1OC[C@@]31OC(C)=O (stereo not given in full)
EC50 [7]: < 0.1 µM (active) | EC50 [8]: 0.229 µM (active) | EC50 [9]: 0.253 µM (active) | EC50 [10]: < 0.1 µM (active) | IC50 [11]: 0.0618 µM (active) | EC50 [12]: 0.402 µM (active) | IC50 [13]: > 80 µM (inactive)

CN1CCN(CC(C)(C)NS(=O)(=O)c2ccc(Cl)cc2)CC1
EC50 [14]: < 0.1 µM (active) | EC50 [15]: > 60 µM (not active) | EC50 [16]: 0.203 µM (active)

COc1ccccc1NC(=O)COc1cccc2c1CCNC2=O
CC50 [17]: 39.1 µM (active) | IC50 [18]: 8.7 µM (active) | IC50 [19]: 28.8 µM (active)

CN(C)CCCCCN(C)Cc1cc2ccccc2o1
EC50 [14]: < 0.1 µM (active) | EC50 [15]: 16.4 µM (active) | EC50 [16]: 0.025 µM (active)

Cc1ccc(-c2cc(C(F)F)n3ncc(C(=O)Nc4c(C)nn(Cc5c(Cl)cccc5Cl)c4C)c3n2)cc1
CC50 [20]: > 100 µM (active) | AC50 [21]: 7.94 µM (inconclusive) | AC50 [22]: inconclusive

CCOc1ccc(-c2cc(CCCC(=O)NCc3ccco3)no2)cc1
EC50 [7]: 14.5 µM (active) | EC50 [8]: 1.22 µM (active) | EC50 [9]: 2.78 µM (active) | EC50 [23]: 17.4 µM (active) | EC50 [10]: < 0.1 µM (active) | EC50 [12]: 1.87 µM (active) | IC50 [24]: > 80 µM (inactive)

Cc1cc(C)n2c(SC/C(O)=C(\C#N)c3nc4ccccc4[nH]3)nnc2n1
IC50 [25]: > 49.8 µM (not active) | IC50 [26]: 1.15 µM (active) | IC50 [27]: 5.01 µM (active)

CCC(C)[C@H](NC(=O)OC(C)(C)C)C(=O)N/N=C/c1ccc2cc(OC)ccc2n1 (stereo not given in full)
CC50 [17]: 36.2 µM (active) | IC50 [19]: 39 µM (active)

Cc1cc(C(=O)N/N=C2\CC(=O)c3ccccc32)c(C)n1-c1ccc(F)cc1
IC50 [25]: > 49.8 µM (not active)

CCn1c(C)nc2cc(C(=O)N/N=C/c3cccc(O)c3O)ccc21
EC50 [28]: 10.9 µM (active) | IC50 [29]: > 50 µM (not active) | EC50 [30]: > 350 µM (not active) | IC50 [31]: > 50 µM (not active) | IC50 [32]: 44 µM (active) | EC50 [33]: 6.34 µM (active) | AC50 [34]: 3.82 µM (active) | EC50 [35]: 9.71 µM (active) | EC50 [36]: 11 µM (active) | AC50 [37]: 2.79 µM (active) | IC50 [38]: 119 µM (active)
